# US20220056019A1, “FARNESOID X RECEPTOR AGONISTS AND USES THEREOF” (Metacrine, Inc., priority 2018, published 2022)
# Biological target: T1, hFXR (Homo sapiens, UniProt Q96RI1)
# T1 construct: expressed in transfected cells; host or cells: CV-1 cells
# T1 sequence (Q96RI1 1-486): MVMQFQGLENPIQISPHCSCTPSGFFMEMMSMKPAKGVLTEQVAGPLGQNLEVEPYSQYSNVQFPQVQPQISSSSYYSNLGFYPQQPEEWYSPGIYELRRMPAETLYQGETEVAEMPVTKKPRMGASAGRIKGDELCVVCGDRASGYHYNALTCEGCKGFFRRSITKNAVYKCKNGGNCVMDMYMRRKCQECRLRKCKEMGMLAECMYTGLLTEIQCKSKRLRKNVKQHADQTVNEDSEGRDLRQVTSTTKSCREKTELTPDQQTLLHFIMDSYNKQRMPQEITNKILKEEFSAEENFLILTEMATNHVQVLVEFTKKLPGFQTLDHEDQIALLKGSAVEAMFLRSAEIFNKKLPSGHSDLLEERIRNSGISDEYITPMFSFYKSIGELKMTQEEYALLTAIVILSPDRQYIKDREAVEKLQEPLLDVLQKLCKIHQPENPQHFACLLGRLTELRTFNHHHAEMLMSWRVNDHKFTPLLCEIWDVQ
# T1 sequence (P19793 1-462 partner): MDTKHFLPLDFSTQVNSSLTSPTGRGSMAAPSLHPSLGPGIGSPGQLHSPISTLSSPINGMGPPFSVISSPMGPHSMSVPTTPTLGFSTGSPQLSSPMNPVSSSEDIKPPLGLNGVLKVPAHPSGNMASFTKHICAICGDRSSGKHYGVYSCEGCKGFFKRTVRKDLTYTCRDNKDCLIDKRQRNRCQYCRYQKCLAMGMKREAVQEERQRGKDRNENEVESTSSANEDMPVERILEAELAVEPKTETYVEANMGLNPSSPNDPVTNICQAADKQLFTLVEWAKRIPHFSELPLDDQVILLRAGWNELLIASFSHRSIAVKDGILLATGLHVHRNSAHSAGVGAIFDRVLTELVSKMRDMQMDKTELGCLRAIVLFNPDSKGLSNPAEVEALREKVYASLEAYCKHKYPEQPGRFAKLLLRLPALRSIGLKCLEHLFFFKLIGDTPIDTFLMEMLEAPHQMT
# Experiment: In Vitro FXR Assay (TK): TK-ECRE-luc reporter in transfected CV-1 cells
# Format: cell-based
# Details: 18 hrs incubation, luminescence
# Outline: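 First, CV-1 cells were grown overnight in stripped-serum DMEM, then transfected for 18 h with expression plasmids for human FXR and RXR plus a TK-ECRE luciferase reporter and YFP. Next, serially diluted compounds were applied for 18 h, and lysates were read by luminescence.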
row,Structure (SMILES),EC50 [nM]
1,"COc1ccc(C23CCC(CN(c4cccc(-c5cnn(C6(C)CCC6)c5)n4)C(=O)[C@H]4CC[C@H](OC(=O)N5CC(O)C5)CC4)(CC2)CC3)cc1C [Compound 25.24, 4-(((4-(4-Methoxy-3-methylphenyl)bicyclo[2.2.2]octan-1-yl)methyl)(6-(1-(1-methylcyclobutyl)-1H-pyrazol-4-y)pyridin-2-yl)carbamoyl)cyclohexyl trans-3-hydroxyazetidine-1-carboxylate]",≤ 50
2,"COc1ccc(C23CCC(CN(c4nccc(-c5cnn(C6(C)CCC6)c5)n4)C(=O)[C@H]4CC[C@H](OC(=O)N5CC(O)C5)CC4)(CC2)CC3)cc1C [Compound 25.25, 4-(((4-(4-Methoxy-3-methylphenyl)bicyclo[2.2.2]octan-1-yl)methyl)(4-(1-(1-methylcyclobutyl)-1H-pyrazol-4-yl)pyrimidin-2-yl)carbamoyl)cyclohexyl trans-3-hydroxyazetidine-1-carboxylate]",≤ 50
3,"COc1ccc(C23CCC(CN(c4cc(-c5cnn(C6(C)CCC6)c5)ncn4)C(=O)[C@H]4CC[C@H](OC(=O)N5CC(O)C5)CC4)(CC2)CC3)cc1C [Compound 25.26, 4-(((4-(4-Methoxy-3-methylphenyl)bicyclo[2.2.2]octan-1-yl)methyl)(6-(1-(1-methylcyclobutyl)-1H-pyrazol-4-yl)pyrimidin-4-yl)carbamoyl)cyclohexyl trans-3-hydroxyazetidine-1-carboxylate]",≤ 50
4,"COc1ccc(C23CCC(CN(c4cncc(-c5cnn(C6(C)CCC6)c5)n4)C(=O)[C@H]4CC[C@H](OC(=O)N5CC(O)C5)CC4)(CC2)CC3)cc1C [Compound 25.27, 4-(((4-(4-Methoxy-3-methylphenyl)bicyclo[2.2.2]octan-1-yl)methyl)(6-(1-(1-methylcyclobutyl)-1H-pyrazol-4-yl)pyrazin-2-yl)carbamoyl)cyclohexyl trans-3-hydroxyazetidine-1-carboxylate]",≤ 50
5,"COc1c(C)cc(C23CCC(CN(c4cc(-c5cnn(C(C)C)c5)ccn4)C(=O)[C@H]4CC[C@H](OC(=O)N5CC(O)C5)CC4)(CC2)CC3)cc1F [Compound 26.05, 4-(((4-(3-Fluoro-4-methoxy-5-methylphenyl)bicyclo[2.2.2]octan-1-yl)methyl)(4-(1-isopropyl-1H-pyrazol-4-yl)pyridin-2-yl)carbamoyl)cyclohexyl trans-3-hydroxyazetidine-1-carboxylate]",≤ 50
6,"COc1c(F)cc(C23CCC(CN(c4cc(-c5cnn(C(C)C)c5)ccn4)C(=O)[C@H]4CC[C@H](OC(=O)N5CC(O)C5)CC4)(CC2)CC3)cc1F [Compound 26.06, 4-(((4-(3,5-Difluoro-4-methoxyphenyl)bicyclo[2.2.2]octan-1-yl)methyl)(4-(1-isopropyl-1H-pyrazol-4-yl)pyridin-2-yl)carbamoyl)cyclohexyl trans-3-hydroxyazetidine-1-carboxylate]",≤ 50
7,"COc1c(C)cc(C23CCC(CN(c4cc(-c5cnn(C(C)C)c5)ccn4)C(=O)[C@H]4CC[C@H](OC(=O)N5CC(O)C5)CC4)(CC2)CC3)cc1C [Compound 26.07, 4-((4-(1-Isopropyl-1H-pyrazol-4-yl)pyridin-2-yl)((4-(4-methoxy-3,5-dimethylphenyl)bicyclo[2.2.2]octan-1-yl)methyl)carbamoyl)cyclohexyl trans-3-hydroxyazetidine-1-carboxylate]",≤ 50
8,"CC(C)c1ccc(C23CCC(CN(c4cc(-c5cnn(C(C)C)c5)ccn4)C(=O)[C@H]4CC[C@H](OC(=O)N5CC(O)C5)CC4)(CC2)CC3)cc1 [Compound 26.10, 4-((4-(1-Isopropyl-1H-pyrazol-4-yl)pyridin-2-yl)((4-(4-isopropylphenyl)bicyclo[2.2.2]octan-1-yl)methyl)carbamoyl)cyclohexyl trans-3-hydroxyazetidine-1-carboxylate]",≤ 50
9,"COc1ccc(C23CCC(CN(c4cc(-c5cnn(C(C)C(F)(F)F)c5)ccn4)C(=O)[C@H]4CC[C@H](OC(=O)N5CC(O)C5)CC4)(CC2)CC3)cc1C (stereo partly drawn) [Compound 26.11, 4-(((4-(4-Methoxy-3-methylphenyl)bicyclo[2.2.2]octan-1-yl)methyl)(4-(1-(1,1,1-trifluoropropan-2-yl)-1H-pyrazol-4-yl)pyridin-2-yl)carbamoyl)cyclohexyl trans-3-hydroxyazetidine-1-carboxylate]",≤ 50
10,"COc1ccc(C23CCC(CN(c4cc(-c5nnc(C(C)C)o5)ccn4)C(=O)[C@H]4CC[C@H](OC(=O)N5CC(O)C5)CC4)(CC2)CC3)cc1C [Compound 26.12, 4-((4-(5-Isopropyl-1,3,4-oxadiazol-2-yl)pyridin-2-yl)((4-(4-methoxy-3-methylphenyl)bicyclo[2.2.2]octan-1-yl)methyl)carbamoyl)cyclohexyl trans-3-hydroxyazetidine-1-carboxylate]",50 to 1000

# Further lines, results first:
row,EC50 [nM],Structure (SMILES)
1,≤ 50,"COc1ccc(C23CCC(CN(c4cncc(-c5cnn(C(C)C)c5)n4)C(=O)[C@H]4CC[C@H](OC(=O)N5CC(O)C5)CC4)(CC2)CC3)cc1C [Compound 25.28, 4-((6-(1-Isopropyl-1H-pyrazol-4-yl)pyrazin-2-yl)((4-(4-methoxy-3-methylphenyl)bicyclo[2.2.2]octan-1-yl)methyl)carbamoyl)cyclohexyl trans-3-hydroxyazetidine-1-carboxylate]"
2,≤ 50,"COc1ncc(C23CCC(CN(c4cc(-c5cnn(C(C)C)c5)ccn4)C(=O)[C@H]4CC[C@H](OC(=O)N5CC(O)C5)CC4)(CC2)CC3)cc1C [Compound 26, 4-((4-(1-Isopropyl-1H-pyrazol-4-yl)pyridin-2-yl)((4-(6-methoxy-5-methylpyridin-3-yl)bicyclo[2.2.2]octan-1-yl)methyl)carbamoyl)cyclohexyl trans-3-hydroxyazetidine-1-carboxylate]"
3,≤ 50,"COc1ccc(C23CCC(CN(c4cc(-c5cnn(C(C)C)c5)c(Cl)cn4)C(=O)[C@H]4CC[C@H](OC(=O)N5CC(O)C5)CC4)(CC2)CC3)cc1C [Compound 26.01, 4-((5-Chloro-4-(1-isopropyl-1H-pyrazol-4-yl)pyridin-2-yl)((4-(4-methoxy-3-methylphenyl)bicyclo[2.2.2]octan-1-yl)methyl)carbamoyl)(trans-cyclohexyl) 3-hydroxyazetidine-1-carboxylate]"
4,≤ 50,"COc1ccc(C23CCC(CN(c4cc(-c5cnn(C(C)C)c5)c(F)cn4)C(=O)[C@H]4CC[C@H](OC(=O)N5CC(O)C5)CC4)(CC2)CC3)cc1C [Compound 26.02, 4-((5-Fluoro-4-(1-isopropyl-1H-pyrazol-4-yl)pyridin-2-yl)((4-(4-methoxy-3-methylphenyl)bicyclo[2.2.2]octan-1-yl)methyl)carbamoyl)(trans-cyclohexyl) 3-hydroxyazetidine-1-carboxylate]"
5,≤ 50,"COc1ccc(C23CCC(CN(c4ccc(F)c(-c5cnn(C(C)C)c5)c4)C(=O)[C@H]4CC[C@H](OC(=O)N5CC(O)C5)CC4)(CC2)CC3)cc1C [Compound 26.03, 4-((4-Fluoro-3-(1-isopropyl-1H-pyrazol-4-yl)phenyl)((4-(4-methoxy-3-methylphenyl)bicyclo[2.2.2]octan-1-yl)methyl)carbamoyl)(trans-cyclohexyl) 3-hydroxyazetidine-1-carboxylate]"
6,≤ 50,"COc1ccc(C23CCC(CN(c4ccc(Cl)c(-c5cnn(C(C)C)c5)c4)C(=O)[C@H]4CC[C@H](OC(=O)N5CC(O)C5)CC4)(CC2)CC3)cc1C [Compound 26.04, 4-((4-Chloro-3-(1-isopropyl-1H-pyrazol-4-yl)phenyl)((4-(4-methoxy-3-methylphenyl)bicyclo[2.2.2]octan-1-yl)methyl)carbamoyl)(trans-cyclohexyl) 3-hydroxyazetidine-1-carboxylate]"
7,≤ 50,"COc1ccc(C23CCC(CN(c4cc(-c5cnn(C(C)C)c5)ccn4)C(=O)[C@H]4CC[C@H](OC(=O)N5CC(O)C5)CC4)(CC2)CC3)cc1F [Compound 26.08, 4-(((4-(3-Fluoro-4-methoxyphenyl)bicyclo[2.2.2]octan-1-yl)methyl)(4-(1-isopropyl-1H-pyrazol-4-yl)pyridin-2-yl)carbamoyl)cyclohexyl trans-3-hydroxyazetidine-1-carboxylate]"
8,≤ 50,"Cc1ccc(C23CCC(CN(c4cc(-c5cnn(C(C)C)c5)ccn4)C(=O)[C@H]4CC[C@H](OC(=O)N5CC(O)C5)CC4)(CC2)CC3)cc1C [Compound 26.09, 4-(((4-(3,4-Dimethylphenyl)bicyclo[2.2.2]octan-1-yl)methyl)(4-(1-isopropyl-1H-pyrazol-4-yl)pyridin-2-yl)carbamoyl)cyclohexyl trans-3-hydroxyazetidine-1-carboxylate]"
